Source: patent US20110263478A1, “SUR1 INHIBITORS FOR THERAPY” (priority 2008, published 2011)
“Also recorded” adds a separate entry of the source.

Assays:
[1] = system: NCCa-ATP channels in bEnd.3 cells; test: Patch clamp, Na azide-induced ATP depletion current in endothelial cells exposed to hypoxia; assay type: cell-based, murine; conditions: 1 μM glibenclamide; hypoxic endothelial cells
Description: Patch clamp of endothelial cells was performed using a nystatin-perforated patch technique, to maintain the metabolic integrity of the cells. The identity of the activated channel can be assessed by measurement of the “reversal potential”, the potential at which an ion channel current reverses from inward to outward. With physiologically relevant concentrations of ions intracellularly and extracellularly (high potassium inside, high sodium outside), the reversal potential can unambiguously distinguish between a K^+ channel current such as KATP, which reverses negative to −50 mV and a non-selective cation channel current such as NCCa-ATP, which reverses near 0 mV.
Cell culture. Endothelial cell cultures from human brain microvessels, human aorta (ScienCell Research Laboratories), and murine brain microvessels (bEnd.3; ATCC), were grown at low density using media and supplements recommended by suppliers.

[2] = system: rats with spinal cord injury (SCI); test: Rat cervical SCI model: hemorrhage / extravasated blood in cord; assay type: in vivo; conditions: 200 ng/h s.q.
Description: Constant infusion of a low-dose of drug was used to achieve sustained occupancy of only high-affinity receptors.
(§1) SCI injury model. This study was performed in accordance with the guidelines of the Institutional Animal Care and Use Committee. Adult female Long-Evans rats (275-350 gm) were anesthetized (Ketamine, 60 mg/kg plus Xylazine, 7.5 mg/kg, i.p.). The dura at C4-5 was exposed via a left hemilaminectomy. A hemi-cervical spinal cord contusion was created using a blunt force impactor (1.3-mm impactor head driven by a 10 gm weight dropped vertically 25 mm) (Soblo sky et al., 2001; Gensel et al., 2006). After SCI, animals were given 10 ml of glucose-free normal saline s.q. Rectal temperature was maintained at ˜37° C. using a servo-controlled warming blanket. Blood gases and serum glucose 10-15 min post-SCI were: pO2, 95±6 mm Hg; pCO2, 46±3 mm Hg; pH, 7.33±0.01; glucose 258±17 mg/dl in controls and pO2, 96±7 mm Hg; pCO2, 45±2 mm Hg; pH, 7.37±0.01; glucose 242±14 mg/dl in glibenclamide-treated animals.
(§2) Drug delivery. […] During the course of the project, slightly different formulations of drug were used, with the best results obtained using stock solutions made by placing 50 mg (or 25 mg) of drug into 10 ml DMSO, and infusion solutions made by placing 400 μl (or 800 μl) stock into 4.6 ml (or 4.2 ml) unbuffered saline (0.9% NaCl) and adjusting the pH to ˜8.5 using 0.1 N NaOH.
For in vivo gene suppression of SUR1, we used oligodeoxynucleotides that were phosphorothioated at 4 distal bonds to protect against endogenous nucleases (35). Within a few min of SCI, mini-osmotic pumps (Alzet 2002, 0.5 μl/h; Durect Corporation) with jugular vein catheters were implanted that delivered either scrambled sequence ODN (Scr-ODN) (5′-[…]-3′; SEQ ID NO:1) or antisense ODN (AS-ODN) (5′-[…]-3′; SEQ ID NO:2) (Yokoshiki et al., 1999) in PBS at a rate of 1 mg/rat/24 h.
Tissue blood. Rats were sacrificed at various times after SCI (n=5-11 rats/group), were perfused with heparinized saline to remove intravascular blood, and 5-mm segments of cord encompassing the lesion were homogenized and processed as described (Choudhri et al., 1997).

[3] = system: rats with spinal cord injury (SCI); test: Rat cervical SCI model: histology, capillaries and lesion size; assay type: in vivo
Description: as §1, §2
Lesion size. At 7 d post-SCI, cords were paraffin sectioned and stained with H&E. Lesion volumes were calculated from lesion areas measured on serial sections every 250 μm.
Immunohistochemistry. Cryosections were immunolabeled (Chen et al., 2003; Simard et al., 2006) using primary antibodies directed against SUR1 (Santa Cruz, C-16; 1:200; 1 h at RT, 48 h at 4° C.), SUR2 (Santa Cruz, H-80; 1:200; 1 h at RT, 48 h at 4° C.), GFAP (Sigma, C-9205; 1:500), and vimentin (Sigma, monoclonal CY3 conjugated; 1:100). Quantitative immunofluorescence was performed as described (Gerzanich et al., 2003).

[4] = rat, in vivo
Description: as §1, §2

[5] = system: recombinant MMP-2 and MMP-9; test: Zymography of gelatinase activity of recombinant MMP; assay type: biochemical; conditions: glibenclamide 10 μM; MMP-inhibitor II 300 nM
Description: In post-ischemic reperfusion of CNS tissues, catastrophic failure of capillary integrity has been attributed to the action of matrix metalloproteinases (MMP) (Wang et al., 2004).
Zymography of recombinant MMP-2 and MMP-9 (Sigma) was performed as described (Sumii and Lo, 2002).

[6] = Tail tip bleeding time in uninjured rats; assay type: in vivo, rat; conditions: for effect on bleeding time: same infusion dose
Description: Bleeding times were measured using tail tip bleeding as described (Lorrain et al., 2003).

rats with percussion-TBI = test: Percussion-TBI rats: neurobehavioral function (SFU, SVE); assay type: in vivo, rat
Description: Young adult male Long-Evans rats, 240-280 gm, were studied. Rats were anesthetized (Ketamine and Xylazine) and physiological parameters including temperature and blood gases were maintained within appropriate physiological ranges. With the head fixed in a stereotaxic frame, a 6-mm circular craniectomy was created abutting the sagittal and lambdoidal sutures. A posterior location was chosen to emphasize damage to underlying hippocampus (Vink et al., 2001; Floyd et al., 2002). […] Sham controls underwent craniectomy without percussion.
Spontaneous forelimb use (SFU) was quantified and spontaneous vertical exploration (SVE) was quantified during 7 days post-TBI. SFU measures sensorimotor asymmetry (Schallert et al., 2000) whereas SVE measures not only vestibulomotor function but also time spent in exploratory activity.

[7] = Testing of glibenclamide doses for effect on serum glucose in rats; assay type: in vivo, rat; conditions: dose1-dose4 (loading 2.5-20 μg/kg i.p., infusion 75-600 ng/hr s.q.); uninjured, stroke and SCI rats
[8] = in humans; cited from earlier work
[9] = system: rodent models of ischemic stroke; conditions: cited from earlier work
[10] = loading dose 10 μg/kg i.p. plus 200 ng/hr s.q.; cited from earlier work
[11] = model of malignant cerebral edema

COc1ccc(Cl)cc1C(=O)NCCc1ccc(S(=O)(=O)NC(=O)NC2CCCCC2)cc1 [glibenclamide]
block of Na azide-induced ohmic current [1]: blocked
hemorrhage in cord on inspection ([2]; 24 h post-SCI, vs vehicle): visibly less hemorrhage
extravasated blood in tissue homogenates ([2]; during the 24 h after SCI): little increase in extravasated blood
lesion, reactive gliosis and myelin (GFAP and myelin labeling) ([3]; 24 h post-SCI, vs controls): smaller lesions, less reactive gliosis and better myelin preservation
lesion volume, reduction compared to controls ([3]; 7 d post-SCI): 3 fold
vimentin(+) capillaries in region of injury ([3]; post-SCI, vs controls): the capillaries were elongated and appeared more normal
serum glucose [4]: 242 ± 14 mg/dL
gelatinase activity of recombinant MMP [5]: the same; also recorded: not affected
tail bleeding time ([6]; n=3-5, P=0.6): 21.5 ± 3.1 s
effect on bleeding time [6]: no effect
effect on bleeding time ([6]; listed as Glibenclamide): did not affect
spontaneous vertical exploration (SVE) (rats with percussion-TBI; 1, 2 and 7 days post-TBI, vs controls): significantly greater SVE scores
spontaneous use of forelimb contralateral to injury (rats with percussion-TBI; 2 days post-TBI, controls 3.5±3.5%, P=0.05): 16.5±3.4%
effect of doses on serum glucose [7]: only the highest are hypoglycemogenic, but only mildly so
volume of distribution [8]: 0.2 L/kg
reduction of cerebral edema (excess water) [9, 11]: half
reduction of mortality [9, 11]: half
reduction of lesion volume ([9]; stroke induced by thromboemboli): half
effect on serum glucose [10]: minimal effects
estimated serum concentration [10]: < 10 nM
